This note sets out measurements from EP0421935B1, “Insect neuropeptides” (Novartis AG, priority 1989, dated 1999).

Bridge positions count the residues as written; N and C are the ends. Square brackets hold non-standard residues; d marks the D form. Peptide text beside a SMILES is read from it. pGlu = O=C1CC[C@@H](C(=O)O)N1

For the test, the system named is corpora allata which have been surgically removed from newly molted 5 stadium Manduca sexta larvae. In words: in vitro JH biosynthesis assay (rate of [14C]JH biosynthesis by excised CC/CA complex). It counts as cell-based. The method, then:
The biological activity of native LAS and LASA's is tested in an in vitro JH-biosynthesis assay using newly molted 5th stadium Manduca sexta larval CC/CA complex. The biological activity of each of the LAS and LASA preparations made according to the following examples is assayed according to a procedure essentially as described (except for media employed) by Pratt and Tobe, 1974 Life Sci vl4:575-586, which is incorporated by reference. This procedure measures the rate of biosynthesis of Juvenile Hormone (JH) by the corpora allata which have been surgically removed from newly molted 5 stadium Manduca sexta larvae. One corpus cardiacum-corpus allatum complex is maintained in 100 µl of TC-199 medium (components of which are shown below) and Hank's salts, and is shaken using a mechanical shaker. The sample to be tested for LAS-like activity is dried and dissolved in TC-199 medium. Then an equal volume of TC-199 medium containing [^14C] methionine is added, and allowed to incubate for 4 hours. […] is extracted from the medium using iso-octane and the extract is assayed by liquid scintillation counting. The rate of biosynthesis by glands exposed to the sample is compared to the rate observed for control glands. The presence of LAS or LASA causes a decrease in the rate of biosynthesis.

Take `CC[C@H](C)[C@@H]1NC(=O)[C@@H]2CCCN2C(=O)[C@H](CC(N)=O)NC(=O)[C@H](Cc2ccccc2)NC(=O)[C@H](Cc2ccc(O)cc2)NC(=O)[C@@H](NC(=O)[C@H](CCC(N)=O)NC(=O)[C@H](CCCNC(=N)N)NC(=O)[C@H](Cc2ccccc2)NC(=O)[C@H](CCCNC(=N)N)NC(=O)[C@@H](NC(=O)[C@@H]2CCC(=O)N2)C(C)C)CSSC[C@@H](C(=O)N[C@@H](Cc2ccccc2)C(=O)O)NC(=O)[C@H](CO)NC1=O` [LAS, pGlu-Val-Arg-Phe-Arg-Gln-Cys-Tyr-Phe-Asn-Pro-Ile-Ser-Cys-Phe-OH] ([pGlu]VRFRQCYFNPISCF-OH; disulfide 7-14): the “allatostatin activity in bioassay” value (crude oxidized synthetic peptide, before reversed phase LC purification) is on record as “exhibits allatostatin activity”. Consider `CC[C@H](C)[C@@H]1NC(=O)[C@@H]2CCCN2C(=O)[C@H](CC(N)=O)NC(=O)[C@H](Cc2ccccc2)NC(=O)[C@H](Cc2ccc(O)cc2)NC(=O)[C@@H](NC(=O)[C@H](CCC(N)=O)NC(=O)[C@H](CCCNC(=N)N)NC(=O)[C@H](Cc2ccccc2)NC(=O)[C@H](CCCNC(=N)N)NC(=O)[C@@H](NC(=O)[C@@H]2CCC(=O)N2)C(C)C)CSSC[C@@H](C(=O)N[C@@H](Cc2ccccc2)C(N)=O)NC(=O)[C@H](CO)NC1=O` [amidated form] ([pGlu]VRFRQCYFNPISCF-NH2; disulfide 7-14), for which the level of activity result (amidated carboxy terminus compared with Native LAS with free carboxy terminus, the test is not given) is recorded as “same level of activity”.
